Assay results reported in patent US5229381A, “Substituted azetidinones as anti-inflammatory and antidegenerative agents” (Merck & Co., Inc., priority 1991, dated 1993).

Target: T1, human polymorphonuclear leukocyte elastase (Homo sapiens, UniProt P08246)
T1 construct: Crude extract of human polymorphonuclear leukocytes (PMN) containing elastase activity; endogenous in cells; host or cells: human polymorphonuclear leukocytes (crude extract)
T1 sequence (P08246 30-247 limits assumed): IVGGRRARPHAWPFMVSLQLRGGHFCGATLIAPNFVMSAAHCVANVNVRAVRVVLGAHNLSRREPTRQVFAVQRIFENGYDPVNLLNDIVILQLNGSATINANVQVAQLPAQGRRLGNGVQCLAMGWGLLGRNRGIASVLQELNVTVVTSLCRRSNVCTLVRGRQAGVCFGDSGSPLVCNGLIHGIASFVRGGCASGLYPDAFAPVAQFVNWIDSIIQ
Test: Inhibition of human polymorphonuclear leukocyte (granulocyte) elastase via hydrolysis of Boc-AAPAN or Boc-AAPVN
Type: biochemical
Conditions: Table I; 2 min after time zero; crude PMN extract, pH 7.5
Experimental: Enzyme Assays for the Inhibition of Human Polymorphonuclear Leukocyte Elastase Via Hydrolysis of N-t-Boc-alanyl-alanyl-prolylalanine-p-nitroanilide (Boc-AAPAN) or N-t-Boc-alanyl-prolylvaline-p-nitroanilide (Boc-AAPVN) Reagent:
0.05M TES (N-tris[hydroxymethyl]methyl-2-amino-ethanesulfonic acid) Buffer, pH 7.5.
0.2 mM Boc-AAPAN or Boc-AAPVN.
To prepare substrate, the solid was first dissolved in 10.0 ml DMSO. Buffer at pH 7.5 was then added to a final volume of 100 ml.
Crude extract of human polymorphonuclear leukocytes (PMN) containing elastase activity.
Inhibitors (azetidinones) to be tested dissolved in DMSO just before use.
To 1.0 ml of 0.2 mM Boc-AAPAN in a cuvette, 0.01-0.1 ml of DMSO with or without inhibitor was added. After mixing, a measurement was taken at 410 mμ to detect any spontaneous hydrolysis due to presence of test compound. 0.05 Milliliters of PMN extract was then added and the ΔOD/min at 410 mμ was measured and recorded. Beckman model 35 spectrophotometer was used.
Results were also expressed as Ki, the micromolar concentration of the inhibitor (μM) giving 50% of the control enzyme activity; or as ^k obs/I which is the second order rate constant in per mole per second for inactivation of the enzyme.
The elastase activity in the crude PMN extract may vary from one preparation to another. A control of each new batch is run, and the volume added in the assay procedure is adjusted according to activity.

Row | SMILES | ID50, effective dosage for 50% inhibition of the enzyme activity two minutes after time zero [µg/mL]
1 | CCC1C(=O)N(C(C)=O)C1OC(C)=O (stereo not shown) [Table I: H; C2 H5; OCOCH3; COCH3] | 100
2 | CCC1C(=O)NC1OC(C)=O (stereo not shown) [Table I: H; C2 H5; OCOCH3; H] | 15000
3 | CC(=O)OC1CC(=O)N1C(C)=O (stereo not shown) [Table I: H; H; OCOCH3; COCH3] | 3000
4 | CCCC1C(=O)N(C(C)=O)C1OC(C)=O (stereo not shown) [Table I: H; n-propyl; OCOCH3; COCH3, 1-acetyl-4-acetoxy-3-n-propylazetidin-2-one] | 10

Further lines, results first:

Row | ID50, effective dosage for 50% inhibition of the enzyme activity two minutes after time zero [µg/mL] | SMILES
5 | 2000 | COC1C(=O)N(C(C)=O)C1C(=O)OCc1ccccc1 (stereo not shown) [Table I: H; CH3 O; COOCH2 C6 H5; COCH3]
6 | 10000 | CC(=O)N1C(=O)CC1[S+](C)[O-] (stereo not shown) [Table I: H; H; SOCH3; COCH3, 1-acetyl-4-methylsulfinylazetidine-2-one]

Same assay, conditions: Table I; read-out: Ki, concentration of the inhibitor giving 50% of the control enzyme activity

Row | SMILES | Ki [nM]
7 | CC[C@H]1C(=O)N(S(=O)(=O)c2ccc(C)cc2)[C@H]1C(=O)N(C)CC(=O)O (relative stereo) | 22000
8 | CC[C@H]1C(=O)N(S(=O)(=O)c2ccc(C)cc2)[C@H]1C(=O)OCc1ccc(C(=O)O)cc1 (relative stereo) | 4200
9 | CC[C@H]1C(=O)N(C(=O)c2ccccc2)[C@H]1OC(C)=O (relative stereo) [Table I: H; C2 H5 (cis); OCOCH3; COPh] | 140
10 | CC[C@H]1C(=O)N(C(C)=O)[C@H]1OC(=O)c1ccccc1 (relative stereo) [Table I: H; C2 H5 (cis); OCOPh; COCH3] | 210
11 | CCO[C@@H]1[C@@H](CC)C(=O)N1C(C)=O (relative stereo) [Table I: H; C2 H5 (trans); OC2 H5; COCH3] | 11900
12 | CC[C@H]1C(=O)N(C(C)=O)[C@@H]1OC(=O)c1ccccc1 (relative stereo) [Table I: H; C2 H5 (trans); OCOPh; COCH3] | 190
13 | CC[C@H]1C(=O)N(C(C)=O)[C@@H]1Oc1ccccc1 (relative stereo) [Table I: H; C2 H5 (trans); OPh; COCH3] | 4300
14 | CCC1C(=O)N(C(=O)c2ccccc2)C1C(C)=O (stereo not drawn) [Table I: H; C2 H5 (trans); COCH3; COPh] | 340
15 | CCC1C(=O)N(C(C)=O)C1OC(C)=O (stereo not shown) [Table I: H; C2 H5; OCOCH3; COCH3] | 360

Same assay, conditions: Table IV, (per mole per second)

Row | kobs/I, second order rate constant of inactivation of the enzyme [M⁻¹ s⁻¹] | SMILES
16 | 4324 | CCCC1(CCC)C(=O)N(C(=O)NC(C)c2ccccc2)C1Oc1ccc(C(=O)O)cc1 (single isomer, unassigned) [Table IV: C3 H7; C3 H7; O-(4-COOHPh); drawing 47 (higher Rf isomer)]
17 | 1446 | CCCC1(CCC)C(=O)N(C(=O)NC(C)c2ccccc2)C1Oc1ccc(C(=O)O)cc1 (single isomer, unassigned) [Table IV: C3 H7; C3 H7; O-(4-COOHPh); drawing 47 (lower Rf isomer)]

Same assay, conditions: pH 7.5, Table I; read-out: kobs/I, second order rate constant of inactivation of the enzyme

Row | SMILES | kinact/KI [M⁻¹ s⁻¹]
18 | CC[C@H]1C(=O)N(S(=O)(=O)c2ccc(C)cc2)[C@H]1C(=O)OCC(=O)O (relative stereo) | 1550
19 | CCOC(=O)N1C(=O)[C@H](CC)[C@@H]1OCC(=O)O (relative stereo) | 796

Results, then the molecule that gave them:

Row | kinact/KI [M⁻¹ s⁻¹] | SMILES
20 | 1000 | CCOC(=O)N1C(=O)[C@H](CC)[C@H]1OCC(=O)NCC(=O)O (relative stereo)
21 | 512 | CCOC(=O)N1C(=O)[C@H](CC)[C@H]1OCC(=O)O (relative stereo)
22 | 346 | CCOC(=O)N1C(=O)[C@H](CC)[C@H]1OC(C)C(=O)O (relative stereo)
23 | 1500 | CCC[C@H]1C(=O)N(C(=O)OCC)[C@@H]1OCC(=O)O (relative stereo)

Same assay, conditions: pH 7.5, Table II, (per mole per second); read-out: kobs/I, second order rate constant of inactivation of the enzyme

Row | SMILES | kinact/KI [M⁻¹ s⁻¹]
24 | CC[C@@]1(C)C(=O)N(C(=O)NCc2ccccc2)[C@H]1Oc1ccc(C(=O)O)cc1 [(3R,4S)-1-(benzylaminocarbonyl)-3-ethyl-3-methyl-4-(4-carboxy)phenoxyazetidin-2-one] | 2000
25 | CCC1(CC)C(=O)N(C(=O)NCc2ccccc2)C1Oc1ccc(CC(N)C(=O)O)cc1 (stereo not shown) [Table II: C2 H5; C2 H5; drawing 36; CH2 Ph] | 2540
26 | CCC1(CC)C(=O)N(C(=O)NCc2ccccc2)C1Oc1ccc(C(=O)N2CCC[C@H]2C(=O)O)cc1 (stereo partly shown) [Table II: C2 H5; C2 H5; drawing 37; CH2 Ph] | 2000
27 | CCC1(CC)C(=O)N(C(=O)NCc2ccccc2)C1Oc1ccc(C(=O)NS(=O)(=O)c2ccc(Cl)cc2)cc1 (stereo not shown) [Table II: C2 H5; C2 H5; drawing 38; CH2 Ph] | 6300
28 | CCC1C(=O)N(C(=O)NCc2ccccc2)C1c1ccc(C(=O)O)cc1 (stereo not shown) [Table II: C2 H5; H; Ph-4-COOH; CH2 Ph] | 900
29 | CCCC1C(=O)N(C(=O)NCc2ccccc2)C1Oc1ccc(C(=O)O)cc1 (stereo not shown) [Table II: C3 H7; H; O-(4-COOHPh); CH2 Ph] | 5000
30 | COC1C(=O)N(C(=O)NCc2ccc3ccccc3c2)C1c1ccc(C(=O)O)cc1 (stereo not shown) [Table II: H; OMe; Ph-4-COOH; CH2-2-Naph] | 1340

Other lines, results leading:

Row | kinact/KI [M⁻¹ s⁻¹] | SMILES
31 | 2420 | CCC1(CC)C(=O)N(C(=O)NCc2ccccc2)C1Oc1ccc([C@H](NC(C)=O)C(=O)O)cc1 (stereo partly shown) [Table II: C2 H5; C2 H5; drawing 39; CH2 Ph]
32 | 4000 | CCC1C(=O)N(C(=O)NCc2ccccc2)C1Oc1ccc(C(=O)O)cc1 (stereo not shown) [Table II: C2 H5; H; O-(4-COOHPh); CH2 Ph]

Same assay, conditions: pH 7.5, Table III, (per mole per second); read-out: kobs/I, second order rate constant of inactivation of the enzyme

Row | SMILES | kinact/KI [M⁻¹ s⁻¹]
33 | CCC1(CC)C(=O)N(C(=O)NCc2ccccc2)C1n1cnc2ccccc21 (stereo not shown) [Table III: 1-benzimidazolyl; CH2 Ph] | 69
34 | CCC1(CC)C(=O)N(C(=O)NCc2ccccc2)C1n1cnnn1 (stereo not shown) [Table III: 1-tetrazolyl; CH2 Ph] | 948
35 | CCC1(CC)C(=O)N(C(=O)NCc2ccc(-c3ccccc3)cc2)C1n1cncn1 (stereo not shown) [Table III: 1-triazolyl; CH2 Ph-4-Ph] | 2140
36 | CCC1(CC)C(=O)N(C(=O)NCc2ccccc2)C1NC(=O)OC (stereo not shown) [Table III: NHCOOMe; CH2 Ph] | 496
37 | CCC1(CC)C(=O)N(C(=O)NCc2ccccc2)C1Oc1ccccc1CCCN(C)C (stereo not shown) [Table III: O-(2-(CH2)3 NMe2Ph); CH2 Ph] | 629
38 | CCC1(CC)C(=O)N(C(=O)NCc2ccccc2)C1Oc1ccc(C(NC(C)=O)C(=O)O)cc1 (stereo not shown) [Table III: O-(4-CH(COOH)NHAcPh); CH2 Ph] | 1680
39 | CCC1(CC)C(=O)N(C(=O)NCc2ccccc2O)C1Oc1ccc(C(=O)O)cc1 (stereo not shown) [Table III: O-(4-COOHPh); CH2 Ph(2-OH)] | 1460
40 | CCC1(CC)C(=O)N(C(=O)NCc2cccc(C)c2)C1Oc1ccc(C(=O)O)cc1 (stereo not shown) [Table III: O-(4-COOHPh); CH2 Ph(3-CH3)] | 6930
41 | CCC1(CC)C(=O)N(C(=O)NCc2ccc(C(C)=O)cc2)C1Oc1ccc(C(=O)O)cc1 (stereo not shown) [Table III: O-(4-COOHPh); CH2 Ph(4-COMe)] | 5920
42 | CCC1(CC)C(=O)N(C(=O)NCC2CCC3CCCCC3C2)C1Oc1ccc(C(=O)O)cc1 (stereo not shown) [Table III: O-(4-COOHPh); drawing 41] | 4160
43 | C=CCOC1N(C(=O)NCc2ccc(-c3ccccc3)cc2)C(=O)C1(CC)CC (stereo not shown) [Table III: O-(allyl); CH2 Ph-4-Ph] | 12500
44 | CCC1(CC)C(=O)N(C(=O)NCc2ccccc2)C1OCC(O)CO (stereo not shown) [Table III: O-glyceryl; CH2 Ph] | 818

Now from value to molecule:

Row | kinact/KI [M⁻¹ s⁻¹] | SMILES
45 | 461 | CCC1(CC)C(=O)N(C(=O)NCc2ccc(-c3ccccc3)cc2)C1n1ccnc1 (stereo not shown) [Table III: 1-imidazole; CH2 Ph-4-Ph]
46 | 351 | CCC1(CC)C(=O)N(C(=O)NCc2ccccc2)C1n1c(=O)cc[nH]c1=O (stereo not shown) [Table III: C00042; CH2 Ph]
47 | 18800 | CCC1(CC)C(=O)N(C(=O)NCc2ccc(C(C)C)cc2)C1Oc1ccc(C(=O)O)cc1 (stereo not shown) [Table III: O-(4-COOHPh); CH2 Ph(4-i-Pr)]
48 | 21800 | CCC1(CC)C(=O)N(C(=O)NCc2ccc(C(C)(C)C)cc2)C1Oc1ccc(C(=O)O)cc1 (stereo not shown) [Table III: O-(4-COOHPh); CH2 Ph(4-tBu)]
49 | 2040 | CCC1(CC)C(=O)N(C(=O)NCc2ccc(C(=O)N3CCOCC3)cc2)C1Oc1ccc(C(=O)O)cc1 (stereo not shown) [Table III: O-(4-COOHPh); drawing 43]

Same assay, conditions: pH 7.5, Table VI, (per mole per second); read-out: kobs/I, second order rate constant of inactivation of the enzyme

Row | kinact/KI [M⁻¹ s⁻¹] | SMILES
50 | 605000 | C=CC[C@@H](NC(=O)N1C(=O)C(CC)(CC)[C@@H]1Oc1ccc(CC(=O)O)cc1)c1ccc2c(c1)OCO2 [(4S)-3,3-diethyl-1-[(R)-α-allyl-(3,4-methylenedioxy)-benzylaminocarbonyl]-4-[(4-carboxymethyl)phenoxy]azetidin-2-one]
51 | 867000 | CCC[C@@H](NC(=O)N1C(=O)C(CC)(CC)[C@@H]1Oc1ccc(CC(=O)O)cc1)c1ccc2c(c1)OCO2 [(4S)-3,3-diethyl-1-[(R)-α-n-propyl-(3,4-methylenedioxy)-benzylaminocarbonyl]-4[(4-carboxymethyl)-phenoxy]azetidin-2-one]

Same assay, conditions: pH 7.5, read-out: kobs/I, second order rate constant of inactivation of the enzyme

Row | SMILES | kinact/KI [M⁻¹ s⁻¹]
52 | CC[C@H]1C(=O)N(S(=O)(=O)c2ccc(C)cc2)[C@H]1C(=O)N(C)CC(=O)O (relative stereo) | 165
53 | CC[C@H]1C(=O)N(S(=O)(=O)c2ccc(C)cc2)[C@H]1C(=O)OCc1ccc(C(=O)O)cc1 (relative stereo) | 299
54 | CCOC(=O)[C@@H]1[C@@H](CC)C(=O)N1S(=O)(=O)c1ccc([N+](=O)[O-])cc1 (relative stereo) [4-Carboethoxy-3-ethyl-1-(p-nitrobenzenesulfonyl)-azetidin-2-one] | 39300
55 | CCOC(=O)[C@H]1[C@@H](CC)C(=O)N1S(=O)(=O)c1ccc([N+](=O)[O-])cc1 (relative stereo) [4-Carboethoxy-3-ethyl-1-(p-nitrobenzenesulfonyl)-azetidin-2-one] | 3920
56 | CC[C@H]1C(=O)N(C(C)=O)[C@H]1OC(=O)c1ccccc1 (relative stereo) [Table I: H; C2 H5 (cis); OCOPh; COCH3] | 28500
57 | CCO[C@@H]1[C@@H](CC)C(=O)N1C(C)=O (relative stereo) [Table I: H; C2 H5 (trans); OC2 H5; COCH3] | 1670
58 | CC[C@H]1C(=O)N(C(C)=O)[C@@H]1OC(=O)c1ccccc1 (relative stereo) [Table I: H; C2 H5 (trans); OCOPh; COCH3] | 81000
59 | CC[C@H]1C(=O)N(C(C)=O)[C@@H]1Oc1ccccc1 (relative stereo) [Table I: H; C2 H5 (trans); OPh; COCH3] | 5270
60 | CCC1C(=O)N(C(=O)c2ccccc2)C1C(C)=O (stereo not drawn) [Table I: H; C2 H5 (trans); COCH3; COPh] | 76600
61 | CCC1C(=O)N(C(C)=O)C1OC(C)=O (stereo not shown) [Table I: H; C2 H5; OCOCH3; COCH3] | 15100
